In patent US4169197A, “6-Deoxyneamines aminoglycoside compounds” (The Upjohn Company, priority 1978, dated 1979):
Values after ≈ are worked out from the molar mass of the structure shown. Where two headings read alike, the source gives them in different places.

Assays:
Format in all cases: cell-based
B. cereus UC 3145 = assay: standard disc plate assay, zones of inhibition; conditions: Bacillus cereus, 12.5 mm paper discs
From the text: (§1) The compounds of formulas (V, VII, IX, XI, XIV, XVI, and XIX) are active as antibacterials and can be used in various environments to erradicate or control susceptible microorganisms. Tables I and II set forth the in vitro antibacterial test results for representative compounds of the present invention. The results were obtained with a standard disc plate assay using 12.5 mm paper discs.

B. subtilis UC 564 = assay: standard disc plate assay, zones of inhibition; conditions: Bacillus subtilis, UC564, 12.5 mm paper discs, read-out: Zones of Inhibition; for zone of inhibition at 100 µg/mL: 0.1 mg/ml; for zone of inhibition at 1000 µg/mL: 1 mg/ml
From the text: as §1

E. coli UC 51 = assay: standard disc plate assay, zones of inhibition; conditions: Escherichia coli, UC51, 12.5 mm paper discs, read-out: Zones of Inhibition; for zone of inhibition at 100 µg/mL: 0.1 mg/ml; for zone of inhibition at 1000 µg/mL: 1 mg/ml
From the text: as §1

K. pneumoniae UC 57 = assay: standard disc plate assay, zones of inhibition; conditions: Klebsiella pneumoniae, UC57, 12.5 mm paper discs, read-out: Zones of Inhibition; for zone of inhibition at 100 µg/mL: 0.1 mg/ml; for zone of inhibition at 1000 µg/mL: 1 mg/ml
From the text: as §1

P. vulgaris UC 93 [1] = assay: standard disc plate assay, zones of inhibition; conditions: Proteus vulgaris, UC93, 1 mg/ml, 12.5 mm paper discs, read-out: Zones of Inhibition
From the text: as §1

S. aureus UC 80 = assay: standard disc plate assay, zones of inhibition; conditions: Staphylococcus aureus, 12.5 mm paper discs; for zone of inhibition at 100 µg/mL: 0.1 mg/ml
From the text: as §1

S. gallinarum UC 265 = assay: standard disc plate assay, zones of inhibition; conditions: Salmonella enterica, 12.5 mm paper discs, read-out: Zones of Inhibition; for zone of inhibition at 100 µg/mL: 0.1 mg/ml; for zone of inhibition at 1000 µg/mL: 1 mg/ml
From the text: as §1

S. lutea UC 130 = assay: standard disc plate assay, zones of inhibition; conditions: Micrococcus luteus, UC130, 1 mg/ml, 12.5 mm paper discs, read-out: Zones of Inhibition
From the text: as §1

S. schottmuelleri UC 126 [2] = assay: standard disc plate assay, zones of inhibition; conditions: 1 mg/ml, 12.5 mm paper discs
From the text: as §1

E. coli UC 311 = assay: standard microplate test in BHI Agar; conditions: Escherichia coli, UC311; BHI Agar, 37°, 20 hours; Table IV; read-out: Minimal Inhibitory Concentration
Description: (§2) The compounds VII, XI, XVβ, XVα and XVI were tested in a standard microplate test in BHI (Brain Heart Infusion) Agar at a concentration of 1 mg./ml. and dilutions thereof at 37° incubation temperature. The end points are read out 20 hours. BHI Agar is supplied by Difco Laboratories, Detroit, Mich.

K. pneumoniae UC 58 = assay: standard microplate test in BHI Agar; conditions: Klebsiella pneumoniae, read-out: Minimal Inhibitory Concentration
Description: as §2

P. mirabilis UC 6671 = assay: standard microplate test in BHI Agar; conditions: Proteus mirabilis, UC6671; BHI Agar, 37°, 20 hours; Table IV; read-out: Minimal Inhibitory Concentration
Description: as §2

P. morganii UC 3186 = assay: standard microplate test in BHI Agar; conditions: Morganella morganii, read-out: Minimal Inhibitory Concentration
Description: as §2

P. rettgeri UC 339 = assay: standard microplate test in BHI Agar; conditions: Providencia rettgeri, UC339; BHI Agar, 37°, 20 hours; Table IV; read-out: Minimal Inhibitory Concentration
Description: as §2

P. vulgaris UC 93 [3] = assay: standard microplate test in BHI Agar; conditions: Proteus vulgaris, UC93; BHI Agar, 37°, 20 hours; Table IV; read-out: Minimal Inhibitory Concentration
Description: as §2

Ps. aeruginosa UC 95 [4] = assay: standard microplate test in BHI Agar; conditions: Pseudomonas aeruginosa, UC95; BHI Agar, 37°, 20 hours; Table IV; read-out: Minimal Inhibitory Concentration
Description: as §2

S. aureus UC 76 = assay: standard microplate test in BHI Agar; conditions: Staphylococcus aureus, read-out: Minimal Inhibitory Concentration
Description: as §2

S. faecalis UC 694 = assay: standard microplate test in BHI Agar; conditions: Enterococcus faecalis, UC694, 20 h, read-out: Minimal Inhibitory Concentration
Description: as §2

S. flexneri UC 143 = assay: standard microplate test in BHI Agar; conditions: Shigella flexneri, UC143, 37°, 20 hours, Table IV, read-out: Minimal Inhibitory Concentration
Description: as §2

S. marcescens UC 131 = assay: standard microplate test in BHI Agar; conditions: Serratia marcescens, UC131; BHI Agar, 37°, 20 hours; Table IV; read-out: Minimal Inhibitory Concentration
Description: as §2

S. pneumoniae I UC 41 = assay: standard microplate test in BHI Agar; conditions: Streptococcus pneumoniae, read-out: Minimal Inhibitory Concentration
Description: as §2

S. pyogenes UC 152 = assay: standard microplate test in BHI Agar; conditions: Streptococcus pyogenes, read-out: Minimal Inhibitory Concentration
Description: as §2

S. schottmuelleri UC 126 [5] = assay: standard microplate test in BHI Agar; conditions: 37°, 20 hours, Table IV, read-out: Minimal Inhibitory Concentration
Description: as §2

S. typhi UC 215 = assay: standard microplate test in BHI Agar; conditions: Salmonella enterica, 20 h, read-out: Minimal Inhibitory Concentration
Description: as §2

Ps. aeruginosa UC 95 [6] = assay: standard disc plate assay, zones of inhibition; conditions: Pseudomonas aeruginosa, UC95; 1 mg/ml; 12.5 mm paper discs; Table II; read-out: Zones of Inhibition
From the text: as §1

Compound	zone of inhibition at 100 µg/mL (B. subtilis UC 564; Table I) [mm]	zone of inhibition at 1000 µg/mL (B. subtilis UC 564; Table I) [mm]	zone of inhibition at 1000 µg/mL (E. coli UC 51; Table I) [mm]	zone of inhibition at 1000 µg/mL (K. pneumoniae UC 57; Table I) [mm]	zone of inhibition at 1000 µg/mL (P. vulgaris UC 93 [1]; Table I) [mm]	zone of inhibition at 1000 µg/mL (S. gallinarum UC 265; Table I) [mm]	zone of inhibition at 1000 µg/mL (S. schottmuelleri UC 126 [2]; Table I) [mm]	MIC (E. coli UC 311) [µg/mL]	MIC (P. mirabilis UC 6671) [µg/mL]	MIC (P. rettgeri UC 339) [µg/mL]	MIC (P. vulgaris UC 93 [3]) [µg/mL]	MIC (Ps. aeruginosa UC 95 [4]) [µg/mL]	MIC (S. faecalis UC 694) [µg/mL]	MIC (S. flexneri UC 143) [µg/mL]	MIC (S. marcescens UC 131) [µg/mL]	MIC (S. schottmuelleri UC 126 [5]) [µg/mL]	MIC (S. typhi UC 215) [µg/mL]	other results
NC[C@H]1O[C@H](O[C@@H]2[C@@H](N)C[C@@H](N)C[C@H]2O[C@H]2O[C@H](CO)[C@@H](O)[C@H]2O)[C@H](N)[C@@H](O)[C@@H]1O [Compound XVα, O-2,6-diamino-2,6-dideoxy-α-D-glucopyranosyl (1→4)-O-[α-D-ribofuranosyl(1→5)]-2,6-dieoxy-D-streptamine]	25	34	24	31	23	26	20	250 (≈ 570 µM)	> 500	> 500	500 (≈ 1140 µM)	> 500	> 500	500 (≈ 1140 µM)	500 (≈ 1140 µM)	125 (≈ 285 µM)	62.5 (≈ 143 µM)	zone of inhibition at 1000 µg/mL (B. cereus UC 3145; UC3145, read-out: Zones of Inhibition, 1 mg/ml, Table I): 20 mm; zone of inhibition at 100 µg/mL (E. coli UC 51; Table I): 17 mm; zone of inhibition at 100 µg/mL (K. pneumoniae UC 57; Table I): 23 mm; zone of inhibition at 100 µg/mL (S. aureus UC 80; UC80, Table I, read-out: Zones of Inhibition): 17 mm; zone of inhibition at 1000 µg/mL (S. aureus UC 80; UC80, 1 mg/ml, Table I, read-out: Zones of Inhibition): 25 mm; zone of inhibition at 100 µg/mL (S. gallinarum UC 265; Table I): 17 mm; zone of inhibition at 1000 µg/mL (S. lutea UC 130; Table I): 16 mm; MIC (K. pneumoniae UC 58; UC58, 20 h): 15.6 µg/mL (≈ 35.6 µM); MIC (P. morganii UC 3186; UC3186, 20 h): 125 µg/mL (≈ 285 µM); MIC (S. aureus UC 76; UC76, 20 h): 125 µg/mL (≈ 285 µM); MIC (S. pneumoniae I UC 41; UC41, 20 h): 125 µg/mL (≈ 285 µM); MIC (S. pyogenes UC 152; UC152, 20 h): 31.2 µg/mL (≈ 71.2 µM)
NC[C@H]1O[C@H](O[C@@H]2[C@@H](N)C[C@@H](N)C[C@@H]2O)[C@H](N)[C@@H](O)[C@@H]1O [6-Deoxy-5-epineamine (XI), 6-deoxy-5-epineamine]	–	–	–	–	–	–	–	–	–	–	–	–	–	–	–	–	–	zone of inhibition at 1000 µg/mL (B. cereus UC 3145; UC3145, 1 mg/ml, Table II, read-out: Zones of Inhibition): 22 mm; zone of inhibition at 100 µg/mL (B. subtilis UC 564; Table II): 26 mm; zone of inhibition at 1000 µg/mL (B. subtilis UC 564; Table II): 35 mm; zone of inhibition at 100 µg/mL (E. coli UC 51; Table II): 16 mm; zone of inhibition at 1000 µg/mL (E. coli UC 51; Table II): 24 mm; zone of inhibition at 100 µg/mL (K. pneumoniae UC 57; Table II): 23 mm; zone of inhibition at 1000 µg/mL (K. pneumoniae UC 57; Table II): 30 mm; zone of inhibition at 1000 µg/mL (P. vulgaris UC 93 [1]; Table II): 24 mm; zone of inhibition at 1000 µg/mL (Ps. aeruginosa UC 95 [6]): 17 mm; zone of inhibition at 100 µg/mL (S. aureus UC 80; UC80, Table II, read-out: Zones of Inhibition): 17 mm; zone of inhibition at 1000 µg/mL (S. aureus UC 80; UC80, 1 mg/ml, Table II, read-out: Zones of Inhibition): 24 mm; zone of inhibition at 100 µg/mL (S. gallinarum UC 265; Table II): 18 mm; zone of inhibition at 1000 µg/mL (S. gallinarum UC 265; Table II): 27 mm; zone of inhibition at 1000 µg/mL (S. lutea UC 130; Table II): 17 mm; zone of inhibition at 1000 µg/mL (S. schottmuelleri UC 126 [2]; Table II): 21 mm
NC[C@H]1O[C@H](O[C@@H]2[C@@H](N)C[C@@H](N)C[C@H]2O[C@@H]2C[C@@H](N)[C@H](O)[C@@H](CO)O2)[C@H](N)[C@@H](O)[C@@H]1O [Compound XVI, O-2,6-diamino-2,6-dideoxy-α-D-glucopyranosyl (1→4)-O-[3-amino-2,3-dideoxy-α-D-arabinohexopyranosyl(1→5)]-2,6-dideoxy-D-streptamine]	25	34	19	24	18	20	15	> 500	> 500	> 500	> 500	> 500	> 500	> 500	> 500	> 500	> 500	zone of inhibition at 1000 µg/mL (B. cereus UC 3145; UC3145, 1 mg/ml, Table I, read-out: Zones of Inhibition): 18 mm; zone of inhibition at 1000 µg/mL (S. aureus UC 80; UC80, read-out: Zones of Inhibition, 1 mg/ml, Table I): 21 mm; MIC (K. pneumoniae UC 58; UC58, BHI Agar, 37°, 20 hours, Table IV): 125 µg/mL (≈ 277 µM); MIC (P. morganii UC 3186; UC3186, BHI Agar, 37°, 20 hours, Table IV): 250 µg/mL (≈ 554 µM); MIC (S. aureus UC 76; UC76, BHI Agar, 37°, 20 hours, Table IV): 250 µg/mL (≈ 554 µM); MIC (S. pneumoniae I UC 41; UC41, BHI Agar, 37°, 20 hours, Table IV (printed D. pneumoniae UC 41)): > 500 µg/mL; MIC (S. pyogenes UC 152; UC152, BHI Agar, 37°, 20 hours, Table IV): 250 µg/mL (≈ 554 µM)
